The values that follow come from article PMC7853623, “Dose- and time-dependent tolerability and efficacy of organo-osmium complex FY26 and its tissue pharmacokinetics in hepatocarcinoma-bearing mice” (Metallomics: Integrated Biometal Science, 2020).

Data set [1] is described as follows: Tolerability (survival, body weight) in Hepa1–6-bearing C57Bl/6 mice (Experiments 3 and 4). The note with it: Experiment 4 (FY26⋅Cl). In kind it is in vivo. Here is the method: (§1) Male CD1-Foxn1^nu or C57Bl/6 (B6) mice aged 5–10 weeks (Janvier, Le Genest St Isle, France) were housed in groups of three to four mice per cage in temperature-controlled (23 ± 1°C), ventilated (100 ± 10 l/min), and light-tight chronobiological animal facilities (Eurobioconcept, Bonneuil s/Marne, France). They were synchronized with an alternation of 12 h of light (L) and 12 h of darkness (D) (LD12:12), with light starting at 07:00, and had ad libitum access to food and water throughout all the experiments. In line with convention, onset of light and that of darkness are referred to as Zeitgeber time 0 (ZT0) and ZT12, respectively. After one or more weeks on this regimen and on the day prior to tumour inoculation, both flanks of each B6 mouse were shaved using clippers.
(§2) The mice, aged 8–10 weeks, were anesthetized under isoflurane and Hepa1–6-Per2-luc cells were injected subcutaneously in both postero-lateral flanks of each mouse. Mice were then inspected and weighed daily until experiment completion. Tumour sites were inspected daily until tumours became palpable and amenable to daily measurements of perpendicular diameters using callipers. Measurements were always taken at the same circadian time.
(§3) Mean daily tumour weight per mouse was calculated as the average volume of the right and left flank tumours according to (L × W^2)/2, where L is the larger and W the smaller perpendicular diameter, and 1 cm^3 corresponds to 1 g. Mice with an estimated tumour weight exceeding 10% of their body weight or those in poor general condition or loosing >15% of their starting body weight were euthanized, in compliance with our Home Office Project Licence specifications approved by the Animals in Science Committee and Animal Welfare and Ethical Review Body.
Experiment 3 aimed at assessing the efficacy and tolerability of the more soluble formulation of FY26⋅Cl in Hepa1–6-bearing C57Bl/6 mice. The mice were randomized to receive vehicle or FY26⋅Cl, at a cumulative dose of 60 mg/kg. Treated mice received ip injections of 20 mg/kg of FY26⋅Cl at ZT6 12, 14, and 17 days after tumour inoculation. Control mice received ip vehicle on the same days.
Experiment 4 aimed at confirming efficacy and optimizing timing and scheduling of the same cumulative dose of 60 mg/kg of FY26⋅Cl. Mice were randomized to receive either vehicle or FY26⋅Cl as four injections of 15 mg/kg at ZT6 or ZT18 on days 11, 14, 17, and 21.
For Experiments 1 and 2, FY26⋅PF6 was diluted in the vehicle, composed of 1% Tween 80 (Sigma-Aldrich, Gillingham, UK), 5% DMSO (Corning, New York, USA) and 94% of 0.9% saline (Prep room, Life Sciences, University of Warwick) under laminar flow. FY26⋅PF6 concentration was confirmed with ICP-MS. For Experiments 3–5, using FY26⋅Cl, a stock solution of 50 mg/ml FY26⋅Cl was prepared in 0.9% saline on the day of injection and diluted as required; the vehicle consisted of 0.9% saline.
(§4) Body weight data were expressed as % body weight measured on the first treatment day. Tumour weights for individually treated mice were expressed as % of the median control values, in order to determine % inhibition. Mean and standard error or median and interquartiles were computed for the different treatment groups and experimental conditions, i.e. drug timing and day of assessment. Groups were compared using parametric or non-parametric ANOVAs, respectively.

On the set-up of data set [2]: method as in ref 22 = [22]; 22. Abraham K. , In vitro and in vivo chronopharmacology of a new generation of an organometallic anticancer drug complex . Ph.D. thesis , University of Warwick , Coventry, UK , 2018 . The note with it: mice ref 22; cited from earlier work.
The test system of data set [3] is Hepa1–6-Per2-luc hepatocarcinoma tumours. As to the kind of experiment: Tumour volume after a single ip dose (Experiment 5). The note with it: single ip dose 5, 10 or 20 mg/kg (FY26⋅Cl). Format: in vivo, C57Bl/6 mice. On the procedure:
as §2, §3
Experiment 5 determined FY26⋅Cl uptake in mouse tumour and liver. Hepa1–6-bearing mice were randomly assigned to either treatment or control groups. They received a single ip injection of 5, 10, or 20 mg/kg of FY26⋅Cl or 0.1 M PBS (vehicle) at ZT6 (Table 1). The mice from pre-set subgroups were culled at 6, 24, or 48 h after injection. […]

The nature of data set [4]: Body weight change after a single ip dose (Experiment 5). In kind it is in vivo, C57Bl/6 mice. The settings on record: single ip dose 5, 10 or 20 mg/kg (FY26⋅Cl), 24 and 48 h, all mice. Here is the method:
Experiment 5 determined FY26⋅Cl uptake in mouse tumour and liver. Hepa1–6-bearing mice were randomly assigned to either treatment or control groups. They received a single ip injection of 5, 10, or 20 mg/kg of FY26⋅Cl or 0.1 M PBS (vehicle) at ZT6 (Table 1). The mice from pre-set subgroups were culled at 6, 24, or 48 h after injection. The subcutaneous tumours in both flanks, as well as liver, spleen, one kidney, an ileum, and a colon segment and brain were sampled and stored at −80°C.
as §4

On the set-up of data set [5]: method as in PMID 20977192. The note with it: 24 h incubation at 37°C, pH 7.4 ref 12; cited from earlier work.
In data set [6] the test system is Hepa1–6-Per2-luc hepatocarcinoma tumours. Description: Antitumour efficacy in Hepa1–6-bearing nude mice (Experiments 1 and 2). Format: in vivo, CD1-Foxn1^nu mice. Here is the method:
as §1
Mouse hepatocarcinoma (Hepa1–6, ATCC® CRL-1830™) was kindly provided by S. Dulong (INSERM U935, Villejuif, France), following their stable transfection with the Per2-luc [pLV7-Bsd-P(Per2)-dLuc] reporter constructs within the C5SYS ERASYSBIO+ project (FP7). Mouse Hepa1–6-Per2-luc cells were cultured in 15-cm Petri dishes until they reached 80% confluency. On the day of tumour inoculation, the cells were trypsinized and resuspended at a concentration of 10^6 cells/100 µl in PBS solution alone (Experiments 1 and 2) or with 1:1 MatriGel™ (Corning, Flintshire, UK) (Experiments 3–5) and kept on ice until injected.
as §2, §3
Experiment 1 aimed at the determination of a therapeutic dose of the less soluble FY26⋅PF6 formulation. Hepa1–6-bearing nude mice were randomly assigned to be injected intraperitoneally (ip) with vehicle (controls), or 40, 60, or 80 mg/kg/injection of FY26⋅PF6 at ZT6 (in the middle of the light span) every other day for 12 days (Table 1).
Experiment 2 aimed at assessing whether FY26⋅PF6 circadian timing would influence toxicity or efficacy in the nude mouse model. The animals were randomly assigned to receive ip vehicle or FY26⋅PF6 (50 mg/kg/injection) at ZT6 or at ZT18 (four controls and six treated mice per ZT) every other day for 11 days (six injections; cumulative dose, 300 mg/kg). […]
(§5) Body weight data were expressed as % body weight measured on the first treatment day. Tumour weights for individually treated mice were expressed as % of the median control values, in order to determine % inhibition. […]

Data set [7] has as its system HCT-116 human colon cancer xenografts. Also on record: method as in ref 13 = [13]; 13. Shnyder S. D. , Fu Y. , Habtemariam A. , van Rijt S. H. , Cooper P. A. , Loadman P. M. , Sadler P. J. , Anti-colorectal cancer activity of an organometallic osmium arene azopyridine complex , Med. The settings on record: HCT-116 xenografts in mice ref 13; cited from earlier work.
Data set [8] is described as follows: Tolerability in Hepa1–6-bearing nude mice (Experiments 1 and 2). Format: in vivo, CD1-Foxn1^nu mice. On the procedure:
as §1, §2, §3
Experiment 1 aimed at the determination of a therapeutic dose of the less soluble FY26⋅PF6 formulation. […]
as §5

Data set [9] deals with A2780 cells. Details: method as in PMID 26162681. The note with it: previously reported ref 18; cited from earlier work.
For data set [10], the system named is Hepa1–6 cells. Details: method as in ref 21, 22 = [21]; 21. Abraham K. , Dallmann R. , Ballesta A. , Romero-Canelon I. , Sadler P. J. , Lévi F. A. , In v itro circadian synchronisation of mouse hepatocarcinoma cells with 24 h temperature cycles uncovers in || [22]; 22. Abraham K. , In vitro and in vivo chronopharmacology of a new generation of an organometallic anticancer drug complex . Ph.D. thesis , University of Warwick , Coventry, UK , 2018 . The note with it: Hepa1–6 cells synchronized with a 24-h periodic temperature cycle ref 21, 22; cited from earlier work.

In data set [11] the test system is 809 cancer cell line screen. Details: method as in PMID 26162681. The settings on record: on average, 809 cancer cell lines ref 18; cited from earlier work.
The nature of data set [12]: Comparative maximum aqueous solubility study (ICP-OES). The settings on record: doubly deionized water, 24 h shaking, ambient 18–20°C, mean ± SD of N = 3. Format: physicochemical. On the procedure: One to five milligrams of FY26⋅PF6 or FY26⋅I, and 180 mg of FY26⋅Cl were dispensed into Falcon tubes in triplicates, then 1 ml of doubly deionized water (DDIW) was added. The Falcon tubes were placed on a Vibrax VXB basic shaker (Sigma-Aldrich, Dorset, UK) for 24 h at a speed of […] (ambient temperature 18–20°C), and were checked at intervals (further solids were added if total saturation appeared to occur). The samples were filtered through syringe filters (PTFE, 0.45 µm, 4 mm) to remove any undissolved solids. The concentrations of Os in the solutions were measured using inductively coupled plasma-optical emission spectroscopy (ICP-OES) (Agilent, Stockport, UK).
Analyses of FY26 solutions were carried out on a Perkin-Elmer (optical emission spectrometer) Optima 5300 DV instrument. All samples and standards were prepared fresh on the day in DDIW with distilled HNO3 (3.2%), thiourea (5 mM), and ascorbic acid (0.1 g/l). The osmium standard was diluted to the following concentrations for the calibration curve: 0, 25, 50, 100, 200, 400, 600, 800, and 1000 ppb. The samples were diluted by serial dilutions of typically 1 in 10 until their concentrations fitted within the calibration range and % total dissolved solids were below 0.2%. Samples were prepared in triplicates and the Os optical emissions at 228.226 and 225.585 nm were detected and integrated.

In data set [13] the test system is A2780 ovarian cancer cells over MRC-5 fibroblasts. Also on record: method as in PMID 26397305. The settings on record: applied synergistically with L-buthionine sulfoximine (L-BSO) ref 19; cited from earlier work.
Details of data set [14]: method as in PMID 9144445. The note with it: cisplatin in BSO-treated mice ref 36; cited from earlier work.

Molecules are shown by their SMILES.

As for `CN(C)c1ccc(N=Nc2ccccn2)cc1.Cc1ccc(C(C)C)cc1.[I-].[Os+2]` [FY26, [Os^II(ɳ^6-p-cym)(PhAzPy-NMe2)I]^+], the “body-weight loss according to dosing time” value in [1] (15 mg/kg ip × 4, ZT18 versus ZT6) is “clearly worse at ZT18”. In addition, the results for the survival rate in [1] (15 mg/kg ip × 4 at ZT6) and in [1] (15 mg/kg ip × 4 at ZT18) were 60% and 30%, respectively. Moreover, in [2], the best-tolerated dosing time entry is given as “near the middle of the light span”. In addition, the “changes in tumour volumes” value in data set [3] was “No changes”. For the same compound, the body weight changes in data set [4] is recorded as < 5%. In data set [5], the “hydrolysis in aqueous solution” value is “does not readily hydrolyse”.
With `CN(C)c1ccc(N=Nc2ccccn2)cc1.Cc1ccc(C(C)C)cc1.F[P-](F)(F)(F)(F)F.[I-].[Os+2]` [FY26⋅PF6, [Os^II(ɳ^6-p-cym)(PhAzPy-NMe2)I]PF6], the “tumour inhibition efficacy ranking” value is given as “intermediate” in data set [6] (Experiment 1, 40 mg/kg/injection ip at ZT6 every other day); “least” in data set [6] (Experiment 1, 60 mg/kg/injection ip at ZT6 every other day); “highest” in data set [6] (Experiment 1, 80 mg/kg/injection ip at ZT6 every other day). In addition, in data set [6] (Experiment 2, 50 mg/kg/injection ip, ZT6 versus ZT18), the “efficacy according to dosing time” value is reported as “slightly better efficacy at ZT6”. In addition, the tumour growth entry in data set [6] (Experiment 2, 50 mg/kg/injection ip, after the sixth dose) is listed as “slowed down transiently”. Also, in data set [7], the “effect on xenograft growth” value is reported as “capable of delaying the growth”. In addition, the “toxicity of the higher dose” value in [8] (Experiment 1, 80 mg/kg/injection, all mice euthanized after up to five injections (cumulative 400 mg/kg)) is reported as “clearly too toxic”. In addition, the “body weight loss dose–response” value in data set [8] (Experiment 1, 40, 60 or 80 mg/kg/injection ip at ZT6) was “linear dose–response relation”. Also, in [8] (Experiment 2, 50 mg/kg/injection ip), the “body-weight loss at ZT6 as compared to ZT18” value is on record as “less pronounced”. Further, the ROS induction result in data set [9] is recorded as “did induce an increase in ROS”. Also, the induction of apoptosis entry in data set [9] is recorded as “did not induce apoptosis”. Besides, the “variation of IC50 according to timing of in vitro drug exposure” value in [10] is listed as 40%. Further, the “activity relative to cisplatin” value in data set [11] is given as 49 times. Besides, the maximum aqueous solubility in data set [12] is 0.0201 (±0.0007) mM. The “selectivity towards A2780 over MRC-5 fibroblasts” value in data set [13] is reported as “up to 64 times”.
With `N.N.[Cl][Pt][Cl]` [cisplatin], in data set [14], the “reduction in average survival rate” value is reported as 5.7 fold.
As for `CN(C)c1ccc(N=Nc2ccccn2)cc1.Cc1ccc(C(C)C)cc1.[I-].[I-].[Os+2]` [FY26⋅I], in data set [12], the maximum aqueous solubility is 1.29 (±0.01) mM.
